Test results as given in PubChem BioAssay AID1259407 (Chemical Carcinogenesis Research Information System (CCRIS), 2018).
Active and inactive are the calls of the source. The rule behind the calls is not given here.

System: CCRIS mutagenicity, Ames/micronucleus/aberration tests
Assay: CCRIS mutagenicity studies
[1] = Test System: AMES SALMONELLA TYPHIMURIUM, Strain/Indicator: TA98, Metabolic Activation: NONE, Method: STANDARD PLATE
[2] = Test System: AMES SALMONELLA TYPHIMURIUM, Strain/Indicator: TA100, Metabolic Activation: NONE, Method: STANDARD PLATE
[3] = Test System: MOUSE LYMPHOMA, Strain/Indicator: L5178Y (TK+/TK-), Metabolic Activation: NONE, Method: SUSPENSION/PLATE
[4] = Test System: MOUSE LYMPHOMA, Strain/Indicator: L5178Y (TK+/TK-), Metabolic Activation: RAT, LIVER, S-9, AROCLOR 1254, Method: SUSPENSION/PLATE

O=C/C=C/c1ccccc1
mutagenic call (End Point: IN VITRO CHROMOSOMAL ABERRATIONS, Test System: CHINESE HAMSTER OVARY CELLS, Metabolic Activation: NONE): inactive; negative
mutagenic call (End Point: IN VITRO CHROMOSOMAL ABERRATIONS, Test System: CHINESE HAMSTER OVARY CELLS, Metabolic Activation: RAT, LIVER, S-9, AROCLOR 1254): inactive; negative
mutagenic call (End Point: IN VIVO MICRONUCLEUS, Test System: BONE MARROW POLYCHROMATIC ERYTHROCYTES, Species: MOUSE, Strain/Sex: DDY/MALE, Route: IP): inactive; negative
mutagenic call (Test System: AMES SALMONELLA TYPHIMURIUM, Strain/Indicator: TA97, Metabolic Activation: NONE, Method: PREINCUBATION (120 MIN)): inactive; negative
mutagenic call (Test System: AMES SALMONELLA TYPHIMURIUM, Strain/Indicator: TA97, Metabolic Activation: S-9, Method: PREINCUBATION (120 MIN)): inactive; negative
mutagenic call (Test System: AMES SALMONELLA TYPHIMURIUM, Strain/Indicator: TA98, Metabolic Activation: HAMSTER, LIVER, S-9, AROCLOR 1254 (2.5-20%), Method: PREINCUBATION): inactive; negative
mutagenic call (Test System: AMES SALMONELLA TYPHIMURIUM, Strain/Indicator: TA98, Metabolic Activation: HAMSTER, LIVER, S-9, AROCLOR 1254, Method: STANDARD PLATE): inactive; negative
mutagenic call (Test System: AMES SALMONELLA TYPHIMURIUM, Strain/Indicator: TA98, Metabolic Activation: NONE, Method: PREINCUBATION (120 MIN)): inactive; negative
mutagenic call [1]: inactive; negative
mutagenic call (Test System: AMES SALMONELLA TYPHIMURIUM, Strain/Indicator: TA98, Metabolic Activation: RAT, LIVER, S-9, AROCLOR 1254, Method: STANDARD PLATE): inactive; negative
mutagenic call (Test System: AMES SALMONELLA TYPHIMURIUM, Strain/Indicator: TA98, Metabolic Activation: S-9, Method: PREINCUBATION (120 MIN)): inactive; negative
mutagenic call (Test System: AMES SALMONELLA TYPHIMURIUM, Strain/Indicator: TA100, Metabolic Activation: HAMSTER, LIVER, S-9, AROCLOR 1254 (2.5-20%), Method: PREINCUBATION): inactive; negative
mutagenic call (Test System: AMES SALMONELLA TYPHIMURIUM, Strain/Indicator: TA100, Metabolic Activation: HAMSTER, LIVER, S-9, AROCLOR 1254, Method: STANDARD PLATE): inactive; negative
mutagenic call (Test System: AMES SALMONELLA TYPHIMURIUM, Strain/Indicator: TA100, Metabolic Activation: NONE, Method: PREINCUBATION): inactive; negative
mutagenic call (Test System: AMES SALMONELLA TYPHIMURIUM, Strain/Indicator: TA100, Metabolic Activation: NONE, Method: PREINCUBATION (120 MIN)): inactive; negative
mutagenic call [2]: inactive; negative
mutagenic call (Test System: AMES SALMONELLA TYPHIMURIUM, Strain/Indicator: TA100, Metabolic Activation: RAT LIVER S-9, AROCLOR 1254, Method: PREINCUBATION): inactive; negative
mutagenic call (Test System: AMES SALMONELLA TYPHIMURIUM, Strain/Indicator: TA100, Metabolic Activation: RAT, LIVER, S-9, AROCLOR 1254, Method: PREINCUBATION): inactive; negative
mutagenic call (Test System: AMES SALMONELLA TYPHIMURIUM, Strain/Indicator: TA100, Metabolic Activation: RAT, LIVER, S-9, AROCLOR 1254, Method: STANDARD PLATE): inactive; negative
mutagenic call (Test System: AMES SALMONELLA TYPHIMURIUM, Strain/Indicator: TA100, Metabolic Activation: S-9, Method: PREINCUBATION (120 MIN)): inactive; negative
mutagenic call (Test System: AMES SALMONELLA TYPHIMURIUM, Strain/Indicator: TA102, Metabolic Activation: HAMSTER, LIVER, S-9, AROCLOR 1254, Method: PREINCUBATION): inactive; negative
mutagenic call (Test System: AMES SALMONELLA TYPHIMURIUM, Strain/Indicator: TA102, Metabolic Activation: MOUSE LIVER S-9, AROCLOR 1254, Method: PREINCUBATION): inactive; negative
mutagenic call (Test System: AMES SALMONELLA TYPHIMURIUM, Strain/Indicator: TA102, Metabolic Activation: NONE, Method: PREINCUBATION): inactive; negative
mutagenic call (Test System: AMES SALMONELLA TYPHIMURIUM, Strain/Indicator: TA102, Metabolic Activation: RAT LIVER S-9, AROCLOR 1254, Method: PREINCUBATION): inactive; negative
mutagenic call (Test System: AMES SALMONELLA TYPHIMURIUM, Strain/Indicator: TA102, Metabolic Activation: RAT, LIVER, S-9, AROCLOR 1254, Method: PREINCUBATION): inactive; negative
mutagenic call (Test System: AMES SALMONELLA TYPHIMURIUM, Strain/Indicator: TA104, Metabolic Activation: MOUSE LIVER S-9, AROCLOR 1254, Method: PREINCUBATION): inactive; negative
mutagenic call (Test System: AMES SALMONELLA TYPHIMURIUM, Strain/Indicator: TA104, Metabolic Activation: NONE, Method: PREINCUBATION): inactive; negative
mutagenic call (Test System: AMES SALMONELLA TYPHIMURIUM, Strain/Indicator: TA104, Metabolic Activation: RAT LIVER S-9, AROCLOR 1254, Method: PREINCUBATION): inactive; negative
mutagenic call (Test System: AMES SALMONELLA TYPHIMURIUM, Strain/Indicator: TA1535, Metabolic Activation: HAMSTER, LIVER, S-9, AROCLOR 1254, Method: STANDARD PLATE): inactive; negative
mutagenic call (Test System: AMES SALMONELLA TYPHIMURIUM, Strain/Indicator: TA1535, Metabolic Activation: NONE, Method: STANDARD PLATE): inactive; negative
mutagenic call (Test System: AMES SALMONELLA TYPHIMURIUM, Strain/Indicator: TA1535, Metabolic Activation: RAT, LIVER, S-9, AROCLOR 1254, Method: STANDARD PLATE): inactive; negative
mutagenic call (Test System: AMES SALMONELLA TYPHIMURIUM, Strain/Indicator: TA1537, Metabolic Activation: HAMSTER, LIVER, S-9, AROCLOR 1254, Method: STANDARD PLATE): inactive; negative
mutagenic call (Test System: AMES SALMONELLA TYPHIMURIUM, Strain/Indicator: TA1537, Metabolic Activation: NONE, Method: PREINCUBATION): inactive; negative
mutagenic call (Test System: AMES SALMONELLA TYPHIMURIUM, Strain/Indicator: TA1537, Metabolic Activation: NONE, Method: STANDARD PLATE): inactive; negative
mutagenic call (Test System: AMES SALMONELLA TYPHIMURIUM, Strain/Indicator: TA1537, Metabolic Activation: RAT, LIVER, S-9, AROCLOR 1254, Method: STANDARD PLATE): inactive; negative
mutagenic call (Test System: AMES SALMONELLA TYPHIMURIUM, Strain/Indicator: TA1538, Metabolic Activation: HAMSTER, LIVER, S-9, AROCLOR 1254, Method: STANDARD PLATE): inactive; negative
mutagenic call (Test System: AMES SALMONELLA TYPHIMURIUM, Strain/Indicator: TA1538, Metabolic Activation: NONE, Method: STANDARD PLATE): inactive; negative
mutagenic call (Test System: AMES SALMONELLA TYPHIMURIUM, Strain/Indicator: TA1538, Metabolic Activation: RAT, LIVER, S-9, AROCLOR 1254, Method: STANDARD PLATE): inactive; negative
mutagenic call [3]: active; positive. reevaluation of results: positive
mutagenic call [4]: active; positive. reevaluation of results: positive

CN(C)c1ccc(/C=C/c2ccc([N+](=O)[O-])cc2)cc1
mutagenic call (Test System: AMES SALMONELLA TYPHIMURIUM, Strain/Indicator: TA98, Metabolic Activation: HAMSTER, LIVER, S-9, AROCLOR 1254 (10%), Method: STANDARD PLATE): active; positive
mutagenic call [1]: inactive; negative
mutagenic call (Test System: AMES SALMONELLA TYPHIMURIUM, Strain/Indicator: TA98, Metabolic Activation: RAT, LIVER, S-9, AROCLOR 1254 (10%), Method: STANDARD PLATE): active; positive
mutagenic call (Test System: AMES SALMONELLA TYPHIMURIUM, Strain/Indicator: TA100, Metabolic Activation: HAMSTER, LIVER, S-9, AROCLOR 1254 (10%), Method: STANDARD PLATE): active; positive
mutagenic call [2]: inactive; negative
mutagenic call (Test System: AMES SALMONELLA TYPHIMURIUM, Strain/Indicator: TA100, Metabolic Activation: RAT, LIVER, S-9, AROCLOR 1254 (10%), Method: STANDARD PLATE): active; positive
mutagenic call [3]: inactive; negative
mutagenic call [4]: active; positive. reevaluation of results: positive

O=[N+]([O-])c1ccc2c([N+](=O)[O-])cc3ccccc3c2c1
mutagenic call (Test System: AMES SALMONELLA TYPHIMURIUM, Strain/Indicator: TA98(1,8-DNP6), Metabolic Activation: NONE, Method: STANDARD PLATE): active; positive
mutagenic call (Test System: AMES SALMONELLA TYPHIMURIUM, Strain/Indicator: TA98(NR), Metabolic Activation: NONE, Method: STANDARD PLATE): active; positive
mutagenic call [1]: active; positive
mutagenic call [2]: active; positive
mutagenic call (Test System: AMES SALMONELLA TYPHIMURIUM, Strain/Indicator: YG1021, Metabolic Activation: NONE, Method: STANDARD PLATE): active; positive
mutagenic call (Test System: AMES SALMONELLA TYPHIMURIUM, Strain/Indicator: YG1024, Metabolic Activation: NONE, Method: STANDARD PLATE): active; positive
mutagenic call (Test System: AMES SALMONELLA TYPHIMURIUM, Strain/Indicator: YG1026, Metabolic Activation: NONE, Method: STANDARD PLATE): active; positive
mutagenic call (Test System: AMES SALMONELLA TYPHIMURIUM, Strain/Indicator: YG1029, Metabolic Activation: NONE, Method: STANDARD PLATE): active; positive
